Experimental data published in publication PMC5924706 (ACS chemical neuroscience, 2017).
Where two headings read alike, the source gives them in different places.

Key:
[1] = system: GluN2C-expressing cultured rat cortical neurons; test: Agonist-evoked NMDAR currents in transfected cultured cortical neurons; conditions: 20 μM compound; NMDA and glycine pressure pulses
[2] = system: cultured rat cortical neurons transfected with GFP alone; test: as above; conditions: 20 μM compound; NMDA and glycine pressure pulses
GluN2C/2D over GluN2A/2B = conditions: cited from earlier work
GluN1/GluN2D receptors = GluN1/GluN2D receptors (Rattus norvegicus, UniProt Q62645); conditions: for agonist pEC50 at GluN1/GluN2D: mean (95% CI); for EC50: read-out: agonist EC50 at GluN1/GluN2D
Chain of GluN1/GluN2D receptors (Q62645 28-1323, other chains not shown): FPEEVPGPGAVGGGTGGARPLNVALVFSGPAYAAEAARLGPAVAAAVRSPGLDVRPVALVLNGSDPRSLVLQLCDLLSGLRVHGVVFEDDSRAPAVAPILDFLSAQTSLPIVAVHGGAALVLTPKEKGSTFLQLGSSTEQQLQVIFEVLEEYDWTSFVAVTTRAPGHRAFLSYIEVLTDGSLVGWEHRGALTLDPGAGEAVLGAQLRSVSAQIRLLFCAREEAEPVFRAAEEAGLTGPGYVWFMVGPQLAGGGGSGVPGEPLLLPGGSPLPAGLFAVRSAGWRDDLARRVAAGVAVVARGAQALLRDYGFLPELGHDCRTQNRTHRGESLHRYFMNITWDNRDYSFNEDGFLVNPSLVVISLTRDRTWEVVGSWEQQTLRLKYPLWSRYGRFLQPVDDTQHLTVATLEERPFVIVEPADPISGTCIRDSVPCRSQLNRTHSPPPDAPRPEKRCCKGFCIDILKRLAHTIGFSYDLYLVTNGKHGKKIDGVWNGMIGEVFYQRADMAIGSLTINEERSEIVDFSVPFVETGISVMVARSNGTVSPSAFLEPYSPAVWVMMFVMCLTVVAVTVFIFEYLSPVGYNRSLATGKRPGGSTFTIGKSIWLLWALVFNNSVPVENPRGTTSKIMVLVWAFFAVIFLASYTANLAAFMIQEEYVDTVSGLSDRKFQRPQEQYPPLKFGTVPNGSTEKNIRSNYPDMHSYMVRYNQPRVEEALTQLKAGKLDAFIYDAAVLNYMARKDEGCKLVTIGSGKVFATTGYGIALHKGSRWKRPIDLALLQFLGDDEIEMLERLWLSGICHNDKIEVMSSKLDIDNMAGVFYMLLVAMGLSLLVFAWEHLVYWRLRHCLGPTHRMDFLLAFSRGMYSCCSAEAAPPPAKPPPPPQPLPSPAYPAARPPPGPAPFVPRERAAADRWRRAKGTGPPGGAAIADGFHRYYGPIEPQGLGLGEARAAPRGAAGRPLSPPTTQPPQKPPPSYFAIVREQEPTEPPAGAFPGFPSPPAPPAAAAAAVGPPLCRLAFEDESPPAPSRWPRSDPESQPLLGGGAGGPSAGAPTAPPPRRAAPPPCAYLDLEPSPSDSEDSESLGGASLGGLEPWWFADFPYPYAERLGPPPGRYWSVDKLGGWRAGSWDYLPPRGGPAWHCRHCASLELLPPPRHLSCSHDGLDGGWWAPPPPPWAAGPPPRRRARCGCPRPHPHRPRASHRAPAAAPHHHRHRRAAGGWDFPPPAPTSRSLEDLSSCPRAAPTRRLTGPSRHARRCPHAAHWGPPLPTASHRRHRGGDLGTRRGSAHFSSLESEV

COc1ccc(OCC2c3cc(OC)c(OC)cc3CCN2C(=O)c2cccc(Cl)c2)cc1 (centres unmarked) [CIQ]
agonist-evoked response, % of control, GluN2C-expressing neurons [1]: 145 ± 5.9%
agonist-evoked response, % of control, neurons transfected with GFP alone [2]: 98 ± 1.8%

Cc1ccc2[nH]c(=O)c(C3=NN(C(=O)CCC(=O)O)C(c4ccc(Br)cc4)C3)c(-c3ccccc3)c2c1 (centres unmarked) [DQP-1105]
selectivity for GluN2C/2D over GluN2A/2B (GluN2C/2D over GluN2A/2B): up to 50 fold

COc1ccc2nc(/C=C/c3cccc([N+](=O)[O-])c3)n(-c3ccc(C(=O)O)cc3)c(=O)c2c1 [QNZ46]
selectivity for GluN2C/2D over GluN2A/2B (GluN2C/2D over GluN2A/2B): up to 50 fold

N[C@@H](CCC(=O)O)C(=O)O [glutamate]
agonist pEC50 at GluN1/GluN2D (GluN1/GluN2D receptors; absence of NAB-14): −6.22 (−6.29, −6.14)
agonist pEC50 at GluN1/GluN2D (GluN1/GluN2D receptors; presence of 3 μM NAB-14): −6.15 (−6.36, −5.93)
EC50 (GluN1/GluN2D receptors; absence of NAB-14): 610 nM
EC50 (GluN1/GluN2D receptors; presence of 3 μM NAB-14): 710 nM
